Assay results published in ChEMBL document CHEMBL3779768, “Simple N(ε)-thioacetyl-lysine-containing cyclic peptides exhibiting highly potent sirtuin inhibition” (Bioorg Med Chem Lett, 2016).
*1 amine or outer side, *2 acyl side, *3 side chain or, on linkers, in order; H or OH if unused. Where a SMILES comes first, the peptide text is derived from it. Bridges are numbered along the chain shown (N, C = ends). [ ]: non-standard residue; d: D form. Suberoyl(Gly)2 = O=C(CCCCCCC(=O)NCC(=O)[*:2])NCC(=O)[*:1]; Lys(Thioacetyl) = CC(=S)NCCCC[C@H](N)C(=O)O; Suberoyl = O=C(CCCCCCC(=O)[*:2])[*:1]; Adipoyl = O=C(CCCCC(=O)[*:2])[*:1]; Suc = O=C(CCC(=O)[*:2])[*:1]

Assays:
[1] = target: T1, NAD-dependent protein deacetylase sirtuin-1 (Homo sapiens, UniProt Q96EB6); experiment: Inhibition of human SIRT1 (133 to 747 amino acid residues) assessed as deacetylation using Z-Lys(Acetyl)-AMC as substrate measured after 4 hrs by fluorescence based microplate reader method in presence of 500 uM beta-NAD+
T1 sequence (Q96EB6 whole entry): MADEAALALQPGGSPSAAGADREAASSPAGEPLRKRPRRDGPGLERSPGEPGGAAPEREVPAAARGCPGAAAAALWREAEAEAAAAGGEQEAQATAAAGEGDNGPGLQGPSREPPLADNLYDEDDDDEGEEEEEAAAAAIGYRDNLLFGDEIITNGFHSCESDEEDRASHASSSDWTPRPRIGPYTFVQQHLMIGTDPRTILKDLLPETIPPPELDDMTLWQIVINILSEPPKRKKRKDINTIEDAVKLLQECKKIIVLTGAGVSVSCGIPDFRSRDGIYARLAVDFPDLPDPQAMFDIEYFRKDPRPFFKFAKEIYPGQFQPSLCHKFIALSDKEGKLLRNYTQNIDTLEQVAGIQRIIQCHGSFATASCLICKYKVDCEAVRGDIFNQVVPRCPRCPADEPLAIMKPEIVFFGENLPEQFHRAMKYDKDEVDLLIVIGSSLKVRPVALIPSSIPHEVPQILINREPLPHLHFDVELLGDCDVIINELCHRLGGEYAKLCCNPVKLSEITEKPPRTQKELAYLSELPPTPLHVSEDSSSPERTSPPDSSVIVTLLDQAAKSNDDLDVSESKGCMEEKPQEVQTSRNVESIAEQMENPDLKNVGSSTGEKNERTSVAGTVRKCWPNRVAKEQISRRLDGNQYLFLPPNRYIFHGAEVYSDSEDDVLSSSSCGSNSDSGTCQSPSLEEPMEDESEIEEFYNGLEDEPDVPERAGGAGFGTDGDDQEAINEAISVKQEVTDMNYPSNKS

[2] = target: T2, NAD-dependent protein deacetylase sirtuin-3, mitochondrial (Homo sapiens, UniProt Q9NTG7); experiment: Inhibition of human SIRT3 expressed in Escherichia coli BL21 (DE3) assessed as deacetylation using Z-Lys(Acetyl)-AMC as substrate measured after 4 hrs by fluorescence based microplate reader method in presence of 500 uM beta NAD+
T2 sequence (Q9NTG7 whole entry): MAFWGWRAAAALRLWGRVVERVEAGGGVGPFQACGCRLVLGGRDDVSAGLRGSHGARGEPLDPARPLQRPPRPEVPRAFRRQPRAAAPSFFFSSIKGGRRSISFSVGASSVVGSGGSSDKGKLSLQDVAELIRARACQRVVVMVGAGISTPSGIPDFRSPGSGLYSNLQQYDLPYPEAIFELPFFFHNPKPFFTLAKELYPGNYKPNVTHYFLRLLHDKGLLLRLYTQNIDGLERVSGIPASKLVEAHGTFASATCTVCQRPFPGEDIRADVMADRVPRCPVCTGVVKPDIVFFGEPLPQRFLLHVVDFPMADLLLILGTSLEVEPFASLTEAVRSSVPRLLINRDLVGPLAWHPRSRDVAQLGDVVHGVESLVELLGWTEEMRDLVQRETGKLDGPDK

[3] = target: T1, NAD-dependent protein deacetylase sirtuin-1; experiment: Inhibition of SIRT1 (unknown origin)
[4] = target: T3, NAD-dependent protein deacetylase sirtuin-2 (Homo sapiens, UniProt Q8IXJ6); experiment: Inhibition of human SIRT2
T3 sequence (Q8IXJ6 whole entry): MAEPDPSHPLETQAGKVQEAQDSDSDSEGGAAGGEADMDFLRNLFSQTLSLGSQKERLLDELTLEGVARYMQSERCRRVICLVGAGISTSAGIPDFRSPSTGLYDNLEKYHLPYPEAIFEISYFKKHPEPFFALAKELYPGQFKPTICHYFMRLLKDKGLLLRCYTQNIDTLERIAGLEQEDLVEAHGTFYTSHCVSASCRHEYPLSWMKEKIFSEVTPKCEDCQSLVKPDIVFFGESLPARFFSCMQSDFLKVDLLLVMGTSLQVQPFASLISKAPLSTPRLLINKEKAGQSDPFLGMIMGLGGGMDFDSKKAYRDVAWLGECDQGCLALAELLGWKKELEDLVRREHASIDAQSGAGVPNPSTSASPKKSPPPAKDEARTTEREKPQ

[5] = target: T2, NAD-dependent protein deacetylase sirtuin-3, mitochondrial; experiment: Inhibition of SIRT3 (unknown origin)
[6] = target: T1, NAD-dependent protein deacetylase sirtuin-1; experiment: Inhibition of recombinant GST-tagged human SIRT1 using 0.3 mM H2N-HK-[N(epsilon)-acetyl-lysine]-LM-COOH as substrate measured after 10 mins HPLC analysis in presence of 0.5 mM beta-NAD+
[7] = target: T3, NAD-dependent protein deacetylase sirtuin-2; experiment: Inhibition of recombinant His6 tagged human SIRT2 using 0.39 mM H2N-HK-[N(epsilon)-acetyl-lysine]-LM-COOH as substrate measured after 12 mins HPLC analysis in presence of 0.5 mM beta-NAD+
[8] = target: T2, NAD-dependent protein deacetylase sirtuin-3, mitochondrial; experiment: Inhibition of recombinant His6 tagged human SIRT3 using 0.105 mM H2N-HK-[N(epsilon)-acetyl-lysine]-LM-COOH as substrate measured after 10 mins HPLC analysis in presence of 3.5 mM beta-NAD+

Row | SMILES | IC50 [6] [nM] | IC50 [7] [nM] | IC50 [8] [nM] | also measured
1 | Cc1cc(C)nc(SCC(=O)Nc2ncc(Cc3cccc4ccccc34)s2)n1 | – | – | – | IC50 [1]: > 140000 nM; IC50 [2]: > 140000 nM
2 | CC[C@H](C)[C@@H]1NC(=O)[C@H](CCCNC(=N)N)NC(=O)[C@H](Cc2ccccc2)NC(=O)[C@H](CC(N)=O)NC(=O)[C@@H](CO)NC(=O)[C@H](Cc2ccc(O)cc2)NC(=O)CSC[C@@H](C(N)=O)NC(=O)[C@H](CO)NC(=O)[C@H](CO)NC(=O)[C@H](CC(N)=O)NC(=O)[C@H](CO)NC(=O)[C@H](Cc2ccc(O)cc2)NC(=O)[C@H](CCCNC(=N)N)NC(=O)[C@H](CCCCNC(=O)C(F)(F)F)NC1=O | – | – | – | IC50 [3]: 47 nM; IC50 [4]: 3.2 nM; IC50 [5]: 480 nM
3 | CSCC[C@H](NC(=O)[C@@H]1CCCCNC(=O)CNC(=O)CCC(=O)NCC(=O)NCCCC[C@H](NC(C)=O)C(=O)N[C@@H](CCCCN)C(=O)N[C@@H](CCCCNC(C)=S)C(=O)N1)C(N)=O | 56.8 | 58.9 | 103 | –
4 | CSCC[C@H](NC(=O)[C@@H]1CCCCNC(=O)CNC(=O)CCCCC(=O)NCC(=O)NCCCC[C@H](NC(C)=O)C(=O)N[C@@H](CCCCN)C(=O)N[C@@H](CCCCNC(C)=S)C(=O)N1)C(N)=O | 38.7 | 53.1 | 52.5 | –
5 | CSCC[C@H](NC(=O)[C@H](CC(C)C)NC(=O)[C@H](CCCCNC(C)=S)NC(=O)[C@H](CCCCN)NC(=O)[C@H](Cc1c[nH]cn1)NC(C)=O)C(N)=O (Ac-HK[Lys(Thioacetyl)]LM-NH2) | 165 | 332 | – | –
6 | CSCC[C@H](NC(=O)[C@@H]1CCCCNC(=O)CNC(=O)CCCCCCC(=O)NCC(=O)NCCCC[C@H](NC(C)=O)C(=O)N[C@@H](CCCCN)C(=O)N[C@@H](CCCCNC(C)=S)C(=O)N1)C(N)=O (Ac-KK[Lys(Thioacetyl)]KM-NH2; linker 1-4 via Suberoyl(Gly)2) | 2.3 | 144 | 42.9 | –

Second part, led by results:

Row | IC50 [6] [nM] | IC50 [7] [nM] | IC50 [8] [nM] | SMILES | also measured
7 | 63.5 | 134 | – | CSCC[C@H](NC(=O)[C@@H]1CCCCNC(=O)CCCCC(=O)NCCCC[C@H](NC(C)=O)C(=O)N[C@@H](CCCCN)C(=O)N[C@@H](CCCCNC(C)=S)C(=O)N1)C(N)=O (Ac-KK[Lys(Thioacetyl)]KM-NH2; linker 1-4 via Adipoyl) | –
8 | 37.1 | 404 | – | CSCC[C@H](NC(=O)[C@@H]1CCCCNC(=O)CCCCCCC(=O)NCCCC[C@H](NC(C)=O)C(=O)N[C@@H](CCCCN)C(=O)N[C@@H](CCCCNC(C)=S)C(=O)N1)C(N)=O (Ac-KK[Lys(Thioacetyl)]KM-NH2; linker 1-4 via Suberoyl) | –
9 | 75.2 | 10.1 | – | CSCC[C@H](NC(=O)[C@@H]1CCCCNC(=O)CCC(=O)NCCCC[C@H](NC(C)=O)C(=O)N[C@@H](CCCCN)C(=O)N[C@@H](CCCCNC(C)=S)C(=O)N1)C(N)=O (Ac-KK[Lys(Thioacetyl)]KM-NH2; linker 1-4 via Suc) | –
